SMILES strings stand for the structures.

What all share (format): cell-based
One test has as its system Enterococci sp. The test is described as follows: MIC by BACTEC or Mueller-Hinton agar method. The method, then: (§1) Inhibition of various bacteria by compound 1 (n=8) is described in Table 1. The biological data were determined by either the BACTEC or Mueller-Hinton agar method and expressed as a minimum inhibitory concentration (MIC).
In another test the test system is M. abscessus. The test is described as follows: MIC by BACTEC or Mueller-Hinton agar method. The method, then:
as §1

The next test has as its system M. avium intracellulare. The experiment in a line: MIC by BACTEC or Mueller-Hinton agar method. How it is done: as §1
Another test has as its system M. fortuitum. The experiment in a line: MIC by BACTEC or Mueller-Hinton agar method. The method, then:
as §1

Test [1] relates to Mycobacterium tuberculosis. The experiment in a line: MIC by BACTEC or Mueller-Hinton agar method. The method, then: as §1
A further test deals with N. nova. The test is described as follows: MIC by BACTEC or Mueller-Hinton agar method. How it is done:
as §1

In a further test the test system is Nocardia asteroides. The experiment in a line: MIC by BACTEC or Mueller-Hinton agar method. The method, then:
as §1

For test [2], the system named is Rapid Growing Atypical Mycobacterial Strains. The experiment in a line: MIC by BACTEC or Mueller-Hinton agar method. The method, then: as §1
Test [3] concerns S. aureus (Coagulas-negative). The experiment in a line: MIC by BACTEC or Mueller-Hinton agar method. How it is done: as §1
The test system of test [4] is Staphylococcus aureus. The test is described as follows: MIC by BACTEC or Mueller-Hinton agar method. The method, then: as §1
A further test has as its system Bacillus subtilis. The test is described as follows: Zone Inhibition Assay. Further details: key: +++=large zone of inhibition; −=no zone of inhibition. The conditions noted are these: 3 μL of a 10 μg/mL sample on a filter disc on a lawn of bacteria, arbitrary scale. The method, then:
(§2) Inhibition of various bacteria by compound 1 (n=6, and n=4) are described in Table 2. The biological data were determined by a Zone Inhibition Assay method. The zone of inhibition was measured using an arbitrary scale: (+++=large zone of inhibition, −=no zone of inhibition). Compound 1 (n=6, and n=4) were tested by spotting 3 μL of a 10 μg/mL sample onto a filter disc which was placed on a lawn of bacteria. N.B. Compound 1 (n=8) was used as a positive control.

The next test has as its system Enterococcus faecalis. The test is described as follows: Zone Inhibition Assay. Conditions: 3 μL of a 10 μg/mL sample on a filter disc on a lawn of bacteria, arbitrary scale. Also on record: key: +++=large zone of inhibition; −=no zone of inhibition. How it is done: as §2
A further test has as its system Mycobacterium smegmatis. The experiment in a line: Zone Inhibition Assay. Further details: key: +++=large zone of inhibition; −=no zone of inhibition. The conditions noted are these: 3 μL of a 10 μg/mL sample on a filter disc on a lawn of bacteria, arbitrary scale. How it is done: as §2
For test [5], the system named is Staphylococcus aureus. The experiment in a line: Zone Inhibition Assay. The conditions noted are these: 3 μL of a 10 μg/mL sample on a filter disc on a lawn of bacteria, arbitrary scale. Also on record: key: +++=large zone of inhibition; −=no zone of inhibition. The method, then: as §2

As usually defined, the MIC is the lowest concentration that inhibits growth of the organism. With `CCCCCCCCCCN(CCCCCCCCCC)S[C@@H]1O[C@@H]([C@H](O)CO)[C@H](O)[C@H]1O` [Compound 1 (n=8), N,N-Didecyl-S-(1-thio-β-D-galactofuranosyl)sulfenamide], the MIC in the test on Enterococci sp. was 5 to 50 µg/mL; against M. abscessus, below 5 µg/mL; against M. avium intracellulare, below 5 µg/mL; with M. fortuitum it was below 5 µg/mL; in test [1] it was below 5 µg/mL; in the test with N. nova, below 5 µg/mL. Also, the minimal inhibitory concentration (MIC) with Nocardia asteroides is below 5 µg/mL; in test [2], below 5 µg/mL; in test [3], 5 to 50 µg/mL; in the test with Staphylococcus aureus [4], 5 to 50 µg/mL.
`CCCCCCCCN(CCCCCCCC)S[C@@H]1O[C@@H]([C@H](O)CO)[C@H](O)[C@H]1O` [1 (n=6), N,N-Dioctyl-S-(1-thio-β-D-galactofuranosyl)sulfenamide]: the “Zone of Inhibition” value with Bacillus subtilis, with Enterococcus faecalis, in the test on Mycobacterium smegmatis and in the test on Staphylococcus aureus [5] was “+++” in each case.
